Results published in PubChem BioAssay AID316 (DTP/NCI, 2004).
Where “and” joins values, the source holds several entries; their conditions need not be identical. Equal values may be shown once. Inconclusive results and toxic doses are left out.

System: P1534 leukemia ip, CD2F1 mice, survival T/C
Assay: NCI In Vivo Anticancer Drug Screen. Data for tumor model P1534 Leukemia (intraperitoneal) in CD2F1 (CDF1) mice
Details: higher = longer survival
Method: The antitumor activity of compounds was measured in mice bearing transplantable tumors. Survival or tumor size were measured and the results are expressed as the measurement made in the treated group (T) divided by the measurement made in the vehicle treated control group (C). The tumor model used in this assay is P1534 Leukemia (intraperitoneal) in CD2F1 (CDF1) mice

[1] = endpoint: mean survival time, dose: 12.5 mg/kg/injection, schedule: Q01DX010 (sc), vehicle: steriod suspending solution
[2] = endpoint: mean survival time, dose: 25.0 mg/kg/injection, schedule: Q01DX010 (sc), vehicle: steriod suspending solution
[3] = endpoint: mean survival time, dose: 50.0 mg/kg/injection, schedule: Q01DX010 (sc), vehicle: steriod suspending solution
[4] = endpoint: mean survival time, dose: 100.0 mg/kg/injection, schedule: Q01DX010 (sc), vehicle: steriod suspending solution
[5] = endpoint: mean survival time, dose: 12.5 mg/kg/injection, schedule: Q01DX010 (ip), vehicle: saline
[6] = endpoint: mean survival time, dose: 25.0 mg/kg/injection, schedule: Q01DX010 (ip), vehicle: saline
[7] = endpoint: mean survival time, dose: 50.0 mg/kg/injection, schedule: Q01DX010 (ip), vehicle: saline
[8] = endpoint: mean survival time, dose: 100.0 mg/kg/injection, schedule: Q01DX010 (ip), vehicle: saline
[9] = endpoint: mean survival time, dose: 31.3 mg/kg/injection, schedule: Q01DX010 (ip), vehicle: saline
[10] = endpoint: mean survival time, dose: 62.5 mg/kg/injection, schedule: Q01DX010 (ip), vehicle: saline
[11] = endpoint: mean survival time, dose: 125.0 mg/kg/injection, schedule: Q01DX010 (ip), vehicle: saline
[12] = endpoint: mean survival time, dose: 10.0 mg/kg/injection, schedule: Q01DX005 (sc), vehicle: steriod suspending solution
[13] = endpoint: mean survival time, dose: 50.0 mg/kg/injection, schedule: Q01DX005 (sc), vehicle: steriod suspending solution
[14] = endpoint: mean survival time, dose: 100.0 mg/kg/injection, schedule: Q01DX005 (sc), vehicle: steriod suspending solution
[15] = endpoint: mean survival time, dose: 200.0 mg/kg/injection, schedule: Q01DX005 (sc), vehicle: steriod suspending solution
[16] = endpoint: mean survival time, dose: 250.0 mg/kg/injection, schedule: Q01DX005 (sc), vehicle: steriod suspending solution
[17] = endpoint: mean survival time, dose: 6.25 mg/kg/injection, schedule: Q01DX010 (ip), vehicle: saline
[18] = endpoint: mean survival time, dose: 250.0 mg/kg/injection, schedule: Q01DX010 (ip), vehicle: saline
[19] = endpoint: mean survival time, dose: 500.0 mg/kg/injection, schedule: Q01DX010 (ip), vehicle: saline
[20] = endpoint: mean survival time, dose: 7.5 mg/kg/injection, schedule: Q01DX010 (ip), vehicle: saline
[21] = endpoint: mean survival time, dose: 10.0 mg/kg/injection, schedule: Q01DX010 (ip), vehicle: saline
[22] = endpoint: mean survival time, dose: 20.0 mg/kg/injection, schedule: Q01DX010 (ip), vehicle: saline
[23] = endpoint: mean survival time, dose: 40.0 mg/kg/injection, schedule: Q01DX010 (ip), vehicle: saline
[24] = endpoint: mean survival time, dose: 2.5 mg/kg/injection, schedule: Q01DX010 (ip), vehicle: saline

C[C@]12C=CC(=O)C=C1CC[C@@H]1[C@@H]2CC[C@]2(C)OC(=O)CC[C@@H]12
T/C [1]: 107 % of control | T/C [2]: 107 % of control | T/C [3]: 107 % of control | T/C [4]: 100 % of control

CC(=O)[C@@]1(O)CC[C@H]2[C@@H]3C[C@H](C)C4=CC(=O)C=C[C@]4(C)[C@@]3(F)[C@@H](O)C[C@@]21C
T/C [1]: 107 % of control | T/C [2]: 107 % of control | T/C [3]: 107 % of control | T/C [4]: 100 % of control

C1CCNCC1
T/C [5]: 96 % of control | T/C [6]: 100 % of control | T/C [7]: 100 % of control | T/C [8]: 96 % of control

CCC(CCC(C)C1CCC2C3CC=C4CC(O)CCC4(C)C3CCC12C)C(C)C (stereo unspecified) (tested in a mixture with another compound)
T/C (endpoint: mean survival time, dose: 12.0 mg/kg/injection, schedule: Q01DX010 (ip), vehicle: water): 102 % of control | T/C (endpoint: mean survival time, dose: 25.0 mg/kg/injection, schedule: Q01DX010 (ip), vehicle: water): 109 % of control | T/C (endpoint: mean survival time, dose: 25.0 mg/kg/injection, schedule: Q#A X020 (ip), vehicle: other): 87 % of control | T/C (endpoint: mean survival time, dose: 50.0 mg/kg/injection, schedule: Q01DX010 (ip), vehicle: water): 93 % of control

CN1CC[C@]23c4c5ccc(O)c4O[C@H]2C(=O)CC[C@H]3[C@H]1C5
T/C (endpoint: mean survival time, dose: 4.0 mg/kg/injection, schedule: Q01DX010 (ip), vehicle: saline): 100 % of control | T/C (endpoint: mean survival time, dose: 8.0 mg/kg/injection, schedule: Q01DX010 (ip), vehicle: saline): 100 % of control | T/C (endpoint: mean survival time, dose: 16.0 mg/kg/injection, schedule: Q01DX010 (ip), vehicle: saline): 107 % of control and 100 % of control | T/C (endpoint: mean survival time, dose: 32.0 mg/kg/injection, schedule: Q01DX010 (ip), vehicle: saline): 103 % of control

CN(Cc1cnc2nc(N)nc(N)c2n1)c1ccc(C(=O)N[C@@H](CCC(=O)O)C(=O)O)cc1
T/C (endpoint: median survival time, dose: 0.5 mg/kg/injection, schedule: Q01DX009 (ip), vehicle: sodium bicarbonate): 158 % of control | T/C (endpoint: median survival time, dose: 1.0 mg/kg/injection, schedule: Q01DX009 (ip), vehicle: sodium bicarbonate): 198 % of control

O=CN(O)CC(=O)O
T/C (endpoint: mean survival time, dose: 15.6 mg/kg/injection, schedule: Q01DX010 (ip), vehicle: saline): 100 % of control | T/C [9]: 100 % of control | T/C [10]: 100 % of control | T/C [11]: 103 % of control

NNC(=O)c1cnccn1
T/C (endpoint: mean survival time, dose: 40.0 mg/kg/injection, schedule: Q01DX010 (ip), vehicle: water): 121 % of control | T/C (endpoint: mean survival time, dose: 80.0 mg/kg/injection, schedule: Q01DX010 (ip), vehicle: water): 110 % of control and 97 % of control

O=C(NO)c1cccnc1
T/C (endpoint: mean survival time, dose: 270.0 mg/kg/injection, schedule: Q01DX010 (ip), vehicle: water): 113 % of control | T/C (endpoint: mean survival time, dose: 400.0 mg/kg/injection, schedule: Q01DX010 (ip), vehicle: water): 107 % of control | T/C (endpoint: mean survival time, dose: 600.0 mg/kg/injection, schedule: Q01DX010 (ip), vehicle: water): 107 % of control and 120 % of control

C[C@]12C=CC(=O)C=C1CC[C@@H]1[C@@H]2C(=O)C[C@@]2(C)[C@H]1CC[C@]2(O)C(=O)CO
T/C (endpoint: mean survival time, dose: 3.13 mg/kg/injection, schedule: Q01DX010 (sc), vehicle: steriod suspending solution): 99 % of control | T/C (endpoint: mean survival time, dose: 6.25 mg/kg/injection, schedule: Q01DX010 (sc), vehicle: steriod suspending solution): 95 % of control | T/C [12]: 105 % of control and 109 % of control and 100 % of control | T/C [1]: 88 % of control | T/C [13]: 107 % of control and 108 % of control and 110 % of control | T/C [14]: 108 % of control and 99 % of control and 100 % of control | T/C [15]: 86 % of control and 102 % of control | T/C [16]: 90 % of control and 93 % of control

NCCCCCCNCCCCCCN
T/C (endpoint: mean survival time, dose: 1.56 mg/kg/injection, schedule: Q01DX010 (ip), vehicle: saline): 100 % of control | T/C (endpoint: mean survival time, dose: 3.13 mg/kg/injection, schedule: Q01DX010 (ip), vehicle: saline): 100 % of control | T/C [17]: 100 % of control | T/C [5]: 92 % of control and 100 % of control

O=c1cn[nH]c(=O)[nH]1
T/C [10]: 94 % of control and 100 % of control | T/C [11]: 100 % of control | T/C [18]: 94 % of control and 100 % of control | T/C [19]: 105 % of control and 111 % of control

CCn1cnc2c(=S)nc[nH]c21
T/C [9]: 114 % of control

CN(CC(=O)NCCCCCCCCCCNC(=O)CN(C)C(=O)OCc1ccccc1)C(=O)OCc1ccccc1
T/C [7]: 96 % of control | T/C [8]: 96 % of control | T/C (endpoint: mean survival time, dose: 200.0 mg/kg/injection, schedule: Q01DX010 (ip), vehicle: saline): 96 % of control | T/C (endpoint: mean survival time, dose: 400.0 mg/kg/injection, schedule: Q01DX010 (ip), vehicle: saline): 96 % of control

O=P1(N(CCCl)CCCl)NCCCO1 (stereo unspecified)
T/C (endpoint: mean survival time, dose: 2.9 mg/kg/injection, schedule: Q01DX010 (ip), vehicle: saline): 98 % of control | T/C (endpoint: mean survival time, dose: 5.7 mg/kg/injection, schedule: Q01DX010 (ip), vehicle: saline): 106 % of control | T/C (endpoint: mean survival time, dose: 11.3 mg/kg/injection, schedule: Q01DX010 (ip), vehicle: saline): 111 % of control

CCN(CC)C(=S)S
T/C [11]: 100 % of control | T/C [18]: 100 % of control | T/C [19]: 103 % of control | T/C (endpoint: mean survival time, dose: 1000.0 mg/kg/injection, schedule: Q01DX010 (ip), vehicle: saline): 107 % of control

C[C@]12CCC(=O)C=C1CC[C@@H]1[C@@H]2[C@@H](O)C[C@@]2(C)[C@H]1CC[C@]2(O)C(=O)CO
T/C [12]: 110 % of control (2×) and 118 % of control | T/C [13]: 104 % of control (2×) and 110 % of control | T/C [14]: 90 % of control and 95 % of control | T/C [15]: 87 % of control and 89 % of control | T/C [16]: 93 % of control

Cn1c(=O)c2c(ncn2C)n(C)c1=O
T/C [6]: 100 % of control | T/C [7]: 100 % of control | T/C [8]: 100 % of control

CCC12CCCN3CCc4c(n(c5ccccc45)C(O)(C(=O)OC)C1)C32 (stereo unspecified)
T/C (endpoint: mean survival time, dose: 1.88 mg/kg/injection, schedule: Q01DX010 (ip), vehicle: saline): 90 % of control | T/C (endpoint: mean survival time, dose: 3.75 mg/kg/injection, schedule: Q01DX010 (ip), vehicle: saline): 93 % of control | T/C [20]: 96 % of control

CC1CCOS(=O)O1 (stereo unspecified)
T/C [21]: 103 % of control | T/C [22]: 100 % of control | T/C [23]: 100 % of control

CC[n+]1c(-c2ccccc2)c2cc(N)ccc2c2ccc(N)cc21
T/C (endpoint: mean survival time, dose: 1.25 mg/kg/injection, schedule: Q01DX010 (ip), vehicle: saline): 117 % of control | T/C [24]: 117 % of control | T/C [21]: 150 % of control

CN(C)/N=N/c1nc[nH]c1C(N)=O
T/C [17]: 100 % of control | T/C [5]: 107 % of control | T/C [6]: 103 % of control | T/C [7]: 107 % of control

c1ccc2ncccc2c1
T/C [6]: 100 % of control | T/C [7]: 100 % of control | T/C [8]: 96 % of control

OCn1cccn1
T/C (endpoint: mean survival time, dose: 100.0 mg/kg/injection, schedule: Q01DX010 (ip), vehicle: water): 124 % of control | T/C (endpoint: mean survival time, dose: 125.0 mg/kg/injection, schedule: Q01DX010 (ip), vehicle: water): 121 % of control | T/C (endpoint: mean survival time, dose: 150.0 mg/kg/injection, schedule: Q01DX010 (ip), vehicle: water): 118 % of control | T/C (endpoint: mean survival time, dose: 200.0 mg/kg/injection, schedule: Q01DX010 (ip), vehicle: water): 86 % of control

COc1ccc2[nH]c3c(C)c4ccncc4c(C)c3c2c1
T/C [21]: 105 % of control and 102 % of control | T/C [22]: 110 % of control and 117 % of control | T/C [23]: 115 % of control and 123 % of control | T/C (endpoint: mean survival time, dose: 80.0 mg/kg/injection, schedule: Q01DX010 (ip), vehicle: saline): 122 % of control

COC(=O)C1C(O)CCC2CN3CCc4c([nH]c5ccccc45)C3CC21 (stereo unspecified)
T/C [24]: 100 % of control | T/C (endpoint: mean survival time, dose: 5.0 mg/kg/injection, schedule: Q01DX010 (ip), vehicle: saline): 100 % of control | T/C [21]: 100 % of control | T/C [22]: 96 % of control

Clc1ncnc2nc[nH]c12
T/C [20]: 106 % of control and 100 % of control | T/C (endpoint: mean survival time, dose: 15.0 mg/kg/injection, schedule: Q01DX010 (ip), vehicle: saline): 94 % of control | T/C (endpoint: mean survival time, dose: 30.0 mg/kg/injection, schedule: Q01DX010 (ip), vehicle: saline): 105 % of control | T/C (endpoint: mean survival time, dose: 60.0 mg/kg/injection, schedule: Q01DX010 (ip), vehicle: saline): 105 % of control

C[C@]12C=CC(=O)C=C1CC[C@@H]1[C@@H]2[C@@H](O)C[C@@]2(C)[C@H]1CC[C@]2(O)C(=O)CO
T/C [1]: 103 % of control | T/C [2]: 106 % of control and 110 % of control
